Experimental data taken from patent US9994546B2, “Cyclopropylamines as LSD1 inhibitors” (Incyte Corporation, priority 2014, dated 2018).

Biological target: LSD-1 enzyme (Homo sapiens (Human), UniProt O60341)
Assay: LANCE LSD1/KDM1A demethylase assay (LSD1 histone demethylase biochemical assay)
Settings: 1 nM LSD-1 enzyme, 1 hour preincubation at 25° C., 0.4 μM biotin-labeled Histone H3 peptide substrate
Protocol: LANCE LSD1/KDM1A demethylase assay—10 μL of 1 nM LSD-1 enzyme (ENZO BML-SE544-0050) in the assay buffer (50 mM Tris, pH 7.5, 0.01% Tween-20, 25 mM NaCl, 5 mM DTT) were preincubated for 1 hour at 25° C. with 0.8 μL compound/DMSO dotted in black 384 well polystyrene plates. […] After stopping the reactions plates were incubated for 30 minutes and read on a PHERAstar FS plate reader (BMG Labtech).

SMILES	IC50
N#CCC1(N2CC(CN[C@@H]3C[C@H]3c3ccccc3)C2)CCN(S(=O)(=O)c2ccccc2)CC1 (relative stereo) [Example 21, [4-(3-{[(trans-2-Phenylcyclopropyl)amino]methyl}azetidin-1-yl)-1-(phenylsulfonyl)piperidin-4-yl]acetonitrile]	≤ 100 nM
N#CCC1(N2CCC(N[C@@H]3C[C@H]3c3ccccc3)CC2)CN(C(=O)c2ccccc2)C1 (relative stereo) [Example 7, (1-Benzoyl-3-{4-[(trans-2-phenylcyclopropyl)amino]piperidin-1-yl}azetidin-3-yl)acetonitrile]	≤ 100 nM
N#CCC1(N2CCC(N[C@@H]3C[C@H]3c3ccccc3)CC2)CNC1 [Example 60, [3-(4-{[(1R,2S)-2-phenylcyclopropyl]amino}piperidin-1-yl)azetidin-3-yl]acetonitrile]	≤ 100 nM
CN(C)C(=O)CC1(N2CCC(N[C@@H]3C[C@H]3c3ccccc3)CC2)CN(C2CCOCC2)C1 [Example 121, N,N-dimethyl-2-[3-(4-{[(1R,2S)-2-phenylcyclopropyl]amino}piperidin-1-yl)-1-(tetrahydro-2H-pyran-4-yl)azetidin-3-yl]acetamide]	≤ 100 nM
CN(C)S(=O)(=O)N1CC(CC#N)(N2CCC(N[C@@H]3C[C@H]3c3ccccc3)CC2)C1 [Example 63, 3-(cyanomethyl)-N,N-dimethyl-3-(4-{[(1R,2S)-2-phenylcyclopropyl]amino}piperidin-1-yl)azetidine-1-sulfonamide]	≤ 100 nM
N#CCC1(N2CCC(N[C@@H]3C[C@H]3c3ccccc3)CC2)CN(CCO)C1 [Example 74, [1-(2-hydroxyethyl)-3-(4-{[(1R,2S)-2-phenylcyclopropyl]amino}piperidin-1-yl)azetidin-3-yl]acetonitrile]	≤ 100 nM
O=C(O)CC1(N2CCC(N[C@@H]3C[C@H]3c3ccccc3)CC2)CN(Cc2nccs2)C1 [Example 129, [3-(4-{[(1R,2S)-2-phenylcyclopropyl]amino}piperidin-1-yl)-1-(1,3-thiazol-2-ylmethyl)azetidin-3-yl]acetic acid]	≤ 100 nM
CN(C)C(=O)CC1(N2CCC(N[C@@H]3C[C@H]3c3ccccc3)CC2)CCC1 [Example 68, N,N-dimethyl-2-[1-(4-{[(1R,2S)-2-phenylcyclopropyl]amino}piperidin-1-yl)cyclobutyl]acetamide]	≤ 100 nM
O=C(O)CC1(N2CCC(N[C@@H]3C[C@H]3c3ccccc3)CC2)CN(CCC(F)(F)F)C1 [Example 130, [3-(4-{[(1R,2S)-2-phenylcyclopropyl]amino}piperidin-1-yl)-1-(3,3,3-trifluoropropyl)azetidin-3-yl]acetic acid]	≤ 100 nM
N#CCC1(N2CCC(N[C@@H]3C[C@H]3c3ccccc3)CC2)CN(C(=O)c2cn[nH]c2)C1 [Example 112, [3-(4-{[(1R,2S)-2-phenylcyclopropyl]amino}piperidin-1-yl)-1-(1H-pyrazol-4-ylcarbonyl)azetidin-3-yl]acetonitrile]	≤ 100 nM
O=C(O)CC1(N2CCC(N[C@@H]3C[C@H]3c3ccccc3)CC2)CN(Cc2ncccn2)C1 [Example 125, [3-(4-{[(1R,2S)-2-phenylcyclopropyl]amino}piperidin-1-yl)-1-(pyrimidin-2-ylmethyl)azetidin-3-yl]acetic acid]	≤ 100 nM
N#CCC1(N2CCC(N[C@@H]3C[C@H]3c3ccccc3)CC2)CN(CCC(=O)O)C1 (relative stereo) [Example 5, 3-(3-(Cyanomethyl)-3-{4-[(trans-2-phenylcyclopropyl)amino]piperidin-1-yl}azetidin-1-yl)propanoic acid]	≤ 100 nM
N#CCC1(N2CCC(CN[C@@H]3C[C@H]3c3ccccc3)CC2)CN(c2ncccc2C#N)C1 (relative stereo) [Example 34, 2-[3-(Cyanomethyl)-3-(4-{[(trans-2-phenylcyclopropyl)amino]methyl}piperidin-1-yl)azetidin-1-yl]nicotinonitrile]	≤ 100 nM
CN1CCC(N2CC(CN[C@@H]3C[C@H]3c3ccccc3)C2)CC1 (relative stereo) [Example 28, N-{[1-(1-Methylpiperidin-4-yl)azetidin-3-yl]methyl}-trans-2-phenylcyclopropanamine]	≤ 100 nM
CS(=O)(=O)N1CC(CC#N)(N2CCC(N[C@@H]3C[C@H]3c3ccccc3)CC2)C1 [Example 58, [1-(methylsulfonyl)-3-(4-{[(1R,2S)-2-phenylcyclopropyl]amino}piperidin-1-yl)azetidin-3-yl]acetonitrile]	≤ 100 nM
CC1(CN[C@@H]2C[C@H]2c2ccccc2)CCN(C2(CC(=O)O)CCC2)CC1 [Example 55, {1-[4-methyl-4-({[(1R,2S)-2-phenylcyclopropyl]amino}methyl)piperidin-1-yl]cyclobutyl}acetic acid]	≤ 100 nM
N#CCC1(N2CCC(N[C@@H]3C[C@H]3c3ccccc3)CC2)CN(C(=O)[C@H]2CCOC2)C1 [Example 115, {3-(4-{[(1R,2S)-2-phenylcyclopropyl]amino}piperidin-1-yl)-1-[(3S)-tetrahydrofuran-3-ylcarbonyl]azetidin-3-yl}acetonitrile]	≤ 100 nM
N#CCC1(N2CCC(CN[C@@H]3C[C@H]3c3ccccc3)CC2)CN(C(=O)c2ccc(F)cc2)C1 (relative stereo) [Example 48, [1-(4-Fluorobenzoyl)-3-(4-{[(trans-2-phenylcyclopropyl)amino]methyl}piperidin-1-yl)azetidin-3-yl]acetonitrile]	≤ 100 nM
N#CCC1(N2CCC(CN[C@@H]3C[C@H]3c3ccccc3)CC2)CN(C(=O)c2cccc(F)c2)C1 (relative stereo) [Example 47, [1-(3-Fluorobenzoyl)-3-(4-{[(trans-2-phenylcyclopropyl)amino]methyl}piperidin-1-yl)azetidin-3-yl]acetonitrile]	≤ 100 nM
